Assays:
[1] = test system: PA-1; assay: Free payload potency in cell lines (96 h): PA-1; type: cell-based, human; conditions: PA-1 (Ovarian)
Procedure: (§1) The potency of the EDA-PNU159682 derivative (FIG. 1) was tested in a variety of cell lines.

[2] = test system: PA-1 32.35 (Ovarian ROR1 −/−); assay: Free payload potency in cell lines (96 h): PA-1 32.35; type: cell-based, human
Procedure: as §1

[3] = test system: PC-9; assay: Free payload potency in cell lines (96 h): PC-9; type: cell-based; conditions: PC-9 (Lung)
Procedure: as §1

[4] = test system: NCI-N87; assay: Free payload potency in cell lines (96 h): NCI-N87; type: cell-based; conditions: NCI-N87 (Stomach)
Procedure: as §1

[5] = test system: DU145; assay: Free payload potency in cell lines (96 h): DU145; type: cell-based; conditions: DU145 (Prostate)
Procedure: as §1

[6] = test system: MDA-231; assay: Free payload potency in cell lines (96 h): MDA-231; type: cell-based; conditions: MDA-231 (Breast)
Procedure: as §1

[7] = test system: MHH-ES1; assay: Free payload potency in cell lines (96 h): MHH-ES1; type: cell-based, human; conditions: MHH-ES1 (Ewings sarcoma)
Procedure: as §1

[8] = test system: A427; assay: Free payload potency in cell lines (96 h): A427; type: cell-based; conditions: A427 (Lung)
Procedure: as §1

[9] = test system: Panc-1; assay: Free payload potency in cell lines (96 h): Panc-1; type: cell-based; conditions: Panc-1 (Pancreatic)
Procedure: as §1

[10] = test system: A549; assay: Free payload potency in cell lines (96 h): A549; type: cell-based, human; conditions: A549 (Lung)
Procedure: as §1

[11] = test system: ACHN; assay: Free payload potency in cell lines (96 h): ACHN; type: cell-based; conditions: ACHN (Kidney)
Procedure: as §1

[12] = test system: Hs746T; assay: Free payload potency in cell lines (96 h): Hs746T; type: cell-based; conditions: Hs746T (Stomach)
Procedure: as §1

[13] = test system: Mino; assay: Free payload potency in cell lines (96 h): Mino; type: cell-based; conditions: Mino (MCL)
Procedure: as §1

[14] = test system: 697; assay: Free payload potency in cell lines (96 h): 697; type: cell-based, human; conditions: 697 (BCL)
Procedure: as §1

[15] = test system: JeKo-1; assay: Free payload potency in cell lines (96 h): JeKo-1; type: cell-based; conditions: JeKo-1 (MCL)
Procedure: as §1

[16] = test system: MDA-468; assay: Free payload potency in cell lines (96 h): MDA-468; type: cell-based; conditions: MDA-468 (Breast)
Procedure: as §1

[17] = test system: PA-1 31-J-06 (Ovarian ROR1 −/−); assay: Free payload potency in cell lines (96 h): PA-1 31-J-06; type: cell-based, human
Procedure: as §1

[18] = test system: Kasumi-2; assay: Free payload potency in cell lines (96 h): Kasumi-2; type: cell-based, human; conditions: Kasumi-2 (BCL)
Procedure: as §1

[19] = Mouse plasma half-life of free payloads (parallel study); type: in vitro ADME; conditions: free payload
Procedure: For both the vc-PAB-DMAE-PNU and vc-PAB-EDA-PNU conjugates liberation of some free payload could be detected as a function of time, with 217 nM PNU159682 and 114 nM of EDA-PNU159682 derivative detected after 120 h respectively. Note, in a parallel study, we calculated the mouse plasma half-lives of the free PNU159682 and EDA-PNU159682 derivatives to be 33 h and 116 h respectively.

[20] = test system: A2780; conditions: ovarian cell line A2780; cited from earlier work
[21] = test system: MCF7; conditions: breast cancer cell line MCF7; cited from earlier work

COc1cccc2c1C(=O)c1c(O)c3c(c(O)c1C2=O)C[C@@](O)(C(=O)CO)C[C@@H]3O[C@H]1C[C@H]2[C@H](O[C@@H]3[C@@H](OC)OCCN32)[C@H](C)O1 [PNU159682]
IC50 [1]: 0.0044 nM
IC50 [2]: 0.0014 nM
IC50 [3]: 0.047 nM
IC50 [4]: 0.122 nM
IC50 [5]: 0.022 nM
IC50 [6]: 0.011 nM
IC50 [7]: 0.0034 nM
IC50 [8]: 0.0098 nM
IC50 [9]: 0.026 nM
IC50 [10]: 0.013 nM
IC50 [11]: 0.0097 nM
IC50 [12]: 0.049 nM
IC50 [13]: 0.037 nM
IC50 [14]: 0.008 nM
IC50 [15]: 0.044 nM
IC50 [16]: 0.021 nM
IC50 [17]: 0.0022 nM
IC50 [18]: 0.0024 nM
mouse plasma half-life [19]: 33 h
potency for in vitro cell killing [20]: pico- to femtomolar range
potency for in vitro cell killing [21]: pico- to femtomolar range

From patent US20230241072A1, “ANTHRACYCLINE DERIVATIVES” (ALMAC DISCOVERY LIMITED, priority 2019, published 2023)
